Results published in patent publication US11485762B2, “Compositions and methods for inhibition of L-plastin activity in osteoclasts to reduce bone loss” (University of Maryland, Baltimore, priority 2017, dated 2022).

Columns and labels:
Assay type in all cases: cell-based, mouse
[1] = system: osteoclasts; experiment: Resorption pit formation assay on dentine slices; settings: for resorption of dentine matrix: sNT-LPL peptides, 12-16 hours
Procedure: Osteoclasts transduced with TAT-LPL peptides of interest for 30 minutes, were re-plated on dentine slices for 10-12 hours in the presence of TAT-fused peptides of interest and TNF-α. Some cultures were treated with a neutralizing antibody to TNFR-1. Resorption assay was performed as described previously (Chellaiah et al., 2000, J. Cell Biol., 148: 665-678; Chellaiah at al., 2000, J. Biol. Chem., 275: 11993-12002). Resorbed area were also scanned in confocal microscopy. Images were stored in TIF format and processed by Adobe Photoshop (Adobe Systems Inc.) (Chellaiah et al., 2000, J. Cell Biol, 148: 665-678). The resorbed pit areas were quantified and data were compiled from four slices per treatment and per experiment. The resorbed pit areas (20-25 pits/slice) were quantified and data were compiled from four slices per treatment. […] The area of the pit was determined from the free-hand traced perimeter using the LSM software (Chellaiah et al., 2000, J. Cell Biol., 148: 665-678). As per Cosmo Bio recommendations, the results of one experiment was compiled for the presentation.
Resorption was evaluated using dentine slices as described previously (Chellaiah et al., 2000, J. Biol. Chem., 275: 11993-12002). After transduction for 30 minutes, osteoclasts were re-plated on dentine slices for 12-16 hours to detect resorption lacuna in the presence of respective LPL peptide and TNF-α. Each treatment was done in quadruplicates Subsequently, dentine slices were stained with Mayer's acid hematoxylin (Sigma) for 6 minutes followed by washing several times with water. Excess stain in the resorbed area and stained cell debris were removed with a cotton swab. The pits were imaged under an X40 objective in a Zeiss inverted phase contrast microscope fitted with a CCD camera (Chellaiah et al., 2003, J Biol Chem 278: 29086-29097; Chellaiah et al., 2003, Mol Biol Cell, 14: 173-189). Images were stored in TIF format and processed by Adobe Photoshop (Adobe Systems Inc.).

[2] = system: osteoclasts; experiment: Osteoclast migration (transwell and phagokinesis assays)
Description: Transwell migration was done essentially as reported previously (Chellaiah et al., 2000, J. Cell Biol., 148: 665-678). Osteoclasts that migrated to the underside of the transwell membrane were stained with hematoxylin stain. Dried filters ware cut out and mounted with a permount solution (Thomas Scientific, Swedesboro, N.J.) on a glass slide. Cells were viewed under X40 objective in an inverted microscope. Six fields per transwell insert were counted using a Zeiss microscope as described previously (Chellaiah et al., 2000, J. Biol. Chem., 275: 11993-12002). Data are presented as the number of cells per migrated field (mean±SD) from one experiment.
Cell migration (phagokinesis and transwell migration) assays were done as described previously (Chellaiah et al., 2000, J. Cell Biol., 148: 665-678). Osteoclasts transduced with sNT-LPL peptides (P1, P2, P5, and P6) were used for these assays. Three to four transwells were used for each treatment. Migrated cells at the bottom of the wells were counted in 3-4 independent fields/transwell filter. Data are presented as migrated cells/field (mean±SD). The experiment was repeated with three osteoclast preparations. In phagokinesis assay, cell motility was assessed by measuring the areas free of gold particles. By using a grided reticule (Boyce Scientific. Inc.) in the eyepiece of a Nikon microscope, areas free of gold particles were measured using a 10× objective. Areas free of gold particles were represented as area moved in mm^2 (Chellaiah et al., 2000, J. Cell Biol., 148: 665-678),

[3] = system: osteoclasts; experiment: Formation of nascent sealing zones (NSZs) in osteoclasts plated on dentine slices (actin staining); settings: for formation of NSZs: sNT-LPL peptides, dentine; for formation of NSZs, time course: 3, 6 and 10 hours, LPL and integrin αv immunostaining; for number of NSZs: dentine slices 2-3 hours, versus basal level
Procedure: The vector pTAT-HA has an N-terminal 6-histidine leader (Nagahara et al., 1998, Nature Medicine, 4:1449-1452). […] For transduction with TAT-fused peptides (100-150 nM), osteoclasts were first kept in serum-free α-MEM for two hours. Afterward, TAT proteins of interest, bone particles, and TNF-α were added to cells in serum-free α-MEM Lysates were made from these cells for immunoprecipitation and immunoblotting analyses. Osteoclasts plated on dentine slices in the presence of TAT-proteins of interest and TNF-α for 3-6 hours or 12-14 hours were used for immunostaining or actin staining analyses. Osteoclast cultures treated only with TNF-α were used as controls.
Osteoclast precursors (10^5 cells/coverslips) were cultured on glass cover slips or dentine slices. Fluorescent labeling was done in osteoclasts transduced or untransduced with TAT-proteins. HA or TAT antibody was used to identify the transduced peptides of interest; rhodamine phalloidin was used to determine actin organization (Chellaiah et al., 2000, J. Cell Biol., 148: 665-678; Chellaiah et al., 2000, J. Biol. Chem., 275: 11993-12002). Immunostained and actin stained osteoclasts were photographed with a Bio-Rad confocal laser-scanning microscope. Images were stored in TIF image format and processed by Adobe Photoshop (Adobe Systems Inc., Mountain View. Calif.).
After cells were kept in the serum-free α-MEM medium for two hours, LPL peptides of interest were added to a final concentration of 100-150 nM to cells in serum-free media (Chellaiah et al, 2000, J. Biol. Chem., 275: 11993-12002). Osteoclasts transduced with peptides of interest and added with bone particles in the presence of TNF-α for 3-4 hours or 12-14 hours were used for lysate preparations. Cells plated on coverslips and treated with peptides were used for actin staining to detect podosomes. […] These cells were used for Actin staining with rhodamine-phalloidin or immunostaining analyses (Chellaiah et al., 2000, J. Biol. Chem., 275: 11993-12002; Chellaiah et al., 2000, J. Cell. Biol., 148: 665-678; Chellaiah et al., 2003, J Biol Chem 278: 29086-29097).
Osteoclasts were fixed with 3% paraformaldehyde for 20 minutes and permeabilized with 0.1% Triton X-100 in PBS for 5 minutes. Subsequently, osteoclasts were stained with a primary (HA or integrin αv) and secondary antibody as described (Chellaiah et al., 2003, J Biol Chem 278: 29086-29097). Actin staining was done with rhodamine-phalloidin as described (Chellaiah et al., 2000, J. Biol. Chem., 275: 11993-12002; Chellaiah et al., 2000, J. Cell Biol., 148: 665-678). Cells were washed and mounted on a slide in a mounting solution (Vector Laboratories) and sealed with nail polish. Immunostained osteoclasts were photographed with a Bio-Rad and Nikon confocal microscope. Images were stored in TIF image format and processed by Adobe Photoshop (Adobe Systems Inc., Mountain View, Calif.).

[4] = phagokinesis and transwell migration assays, sNT-LPL peptides
[5] = transwell migration, TAT-fused LPL peptides

| Molecule | resorption of dentine matrix [1] | migration [2, 4] | formation of NSZs [3] | formation of NSZs, time course [3] | resorption (resorption pits) ([1]; dentine 10-12 hours, TNF-α) | migration [2, 5] | number of NSZs ([3]; TNF-α) | formation of NSZs, lower magnification (FIG. 7) ([3]; dentine slices 3-4 hours, TNF-α) |
| --- | --- | --- | --- | --- | --- | --- | --- | --- |
| MARGAVADEE [Peptide P2, TAT-fused sNT-LPL peptide, Ser-5 and Ser-7 substituted to Alanine (A5A7)] | no inhibitory effect | Neither the migration (FIG. 12A-FIG. 12C) nor the formation the podosomes (FIG. 12D) was affected | no inhibitory effect | – | – | – | – | – |
| MARGSVSDEE [Peptide P1, TAT-fused small molecular weight (10aa) amino-terminal LPL peptide, unsubstituted (S5S7)] | Reduced resorption of dentine | Neither the migration (FIG. 12A-FIG. 12C) nor the formation the podosomes (FIG. 12D) was affected | considerable decrease | attenuates | – | – | – | – |
| SRSGMVEEAD [Peptide P5, TAT-fused scrambled sNT-LPL peptide, control, reference compound] | no inhibitory effect | Neither the migration (FIG. 12A-FIG. 12C) nor the formation the podosomes (FIG. 12D) was affected | no inhibitory effect | time-dependent organization | – | – | – | – |
| FL-LPL: HA-TAT fused full-length L-plastin protein (70-75 kDa), purified from bacterial expression vector pTAT-HA (protein, UniProt P13796 1-627, looked up, full-length HA-TAT tag, HA-TAT fused full-length L-plastin protein (70-75 kDa), purified from bacterial expression vector pTAT-HA) MARGSVSDEEMMELREAFAKVDTDGNGYISFNELNDLFKAACLPLPGYRVREITENLMATGDLDQDGRISFDEFIKIFHGLKSTDVAKTFRKAINKKEGICAIGGTSEQSSVGTQHSYSEEEKYAFVNWINKALENDPDCRHVIPMNPNTNDLFNAVGDGIVLCKMINLSVPDTIDERTINKKKLTPFTIQENLNLALNSASAIGCHVVNIGAEDLKEGKPYLVLGLLWQVIKIGLFADIELSRNEALIALLREGESLEDLMKLSPEELLLRWANYHLENAGCNKIGNFSTDIKDSKAYYHLLEQVAPKGDEEGVPAVVIDMSGLREKDDIQRAECMLQQAERLGCRQFVTATDVVRGNPKLNLAFIANLFNRYPALHKPENQDIDWGALEGETREERTFRNWMNSLGVNPRVNHLYSDLSDALVIFQLYEKIKVPVDWNRVNKPPYPKLGGNMKKLENCNYAVELGKNQAKFSLVGIGGQDLNEGNRTLTLALIWQLMRRYTLNILEEIGGGQKVNDDIIVNWVNETLREAKKSSSISSFKDPKISTSLPVLDLIDAIQPGSINYDLLKTENLNDDEKLNNAKYAISMARKIGARVYALPEDLVEVNPKMVMTVFACLMGKGMKRV | – | – | – | – | increase in the number and size (area) of resorption pits | does not affect | substantial increase above the basal level | – |
| mutated FL-LPL: TAT-fused full-length L-plastin with Ser-5 and Ser-7 mutated to Ala-5 and Ala-7 (protein, UniProt P13796 1-627, looked up, variant S5A S7A, full-length HA-TAT tag) MARGAVADEEMMELREAFAKVDTDGNGYISFNELNDLFKAACLPLPGYRVREITENLMATGDLDQDGRISFDEFIKIFHGLKSTDVAKTFRKAINKKEGICAIGGTSEQSSVGTQHSYSEEEKYAFVNWINKALENDPDCRHVIPMNPNTNDLFNAVGDGIVLCKMINLSVPDTIDERTINKKKLTPFTIQENLNLALNSASAIGCHVVNIGAEDLKEGKPYLVLGLLWQVIKIGLFADIELSRNEALIALLREGESLEDLMKLSPEELLLRWANYHLENAGCNKIGNFSTDIKDSKAYYHLLEQVAPKGDEEGVPAVVIDMSGLREKDDIQRAECMLQQAERLGCRQFVTATDVVRGNPKLNLAFIANLFNRYPALHKPENQDIDWGALEGETREERTFRNWMNSLGVNPRVNHLYSDLSDALVIFQLYEKIKVPVDWNRVNKPPYPKLGGNMKKLENCNYAVELGKNQAKFSLVGIGGQDLNEGNRTLTLALIWQLMRRYTLNILEEIGGGQKVNDDIIVNWVNETLREAKKSSSISSFKDPKISTSLPVLDLIDAIQPGSINYDLLKTENLNDDEKLNNAKYAISMARKIGARVYALPEDLVEVNPKMVMTVFACLMGKGMKRV | – | – | – | – | – | does not affect | more or less equal | did not affect |
